Results taken from US20240207291A1, “METHODS FOR TREATING POXVIRUS INFECTIONS” (priority 2022, published 2024).
Where “and” joins values, the source holds several entries; their conditions need not be identical. Equal values may be shown once. Read-outs that look alike come from different tables or passages of the source.

Tests used:
[1] = system: vaccinia virus (modified vaccinia virus Ankara; MVA); test: microbe, parasite or virus in culture; assay type: cell-based
in vitro [2] = conditions: hamster
[3] = system: Vaccinia virus (MVA strain); assay type: cell-based
in vitro [4] = conditions: hamster, BHK-21 cells, no virus, 2 days
[5] = CC50, Average of Tests 1-2 (Table 1)
[6] = CC50, Average, Tests 1-3 (Table 1A)
[7] = CC50, Test 2, uninfected BHK-21 cells, 3 days
[8] = CC50, Test 3, uninfected BHK-21 cells, 3 days

Row | SMILES | EC50 [1] | EC50 ([1]; Orthopoxvirus vaccinia) | CC50 (in vitro [2]; [5]) | CC50 (in vitro [2]; [6]) | CC50 (in vitro [2]; CC50, Test 1, uninfected BHK-21 cells, 3 days) | CC50 (in vitro [2]; [7]) | CC50 (in vitro [2]; [8]) | EC50 ([3]; read-out: Average EC50 ± SD) | EC50 ([3]; read-out: EC50) | CC50 (in vitro [4]; CC50, n=3) | CC50 (in vitro [4]; CC50 ± SD, n=4)
1 | Nc1ccn(C[C@@H](CO)OCP(=O)(O)O)c(=O)n1 [Cidofovir] | 2.6 µM and 7.2 µM | 4.9 µM | > 100 µM | > 73 µM | > 100 µM | > 100 µM | 73 µM |  |  |  | 
2 | CCC(CC)COC(=O)[C@H](C)N[P@](=O)(OC[C@H]1O[C@@](C#N)(c2ccc3c(N)ncnn23)[C@H](O)[C@@H]1O)Oc1ccccc1 [Compound of Formula Ia, (S)-2-ethylbutyl 2-(((S)-(((2R,3S,4R,5R)-5-(4-aminopyrrolo[2,1-f][1,2,4]triazin-7-yl)-5-cyano-3,4-dihydroxytetrahydrofuran-2-yl)methoxy)(phenoxy)phosphoryl)amino)propanoate] | 2.3 µM and 0.55 µM | 1.43 µM | 12.8 µM | > 2.5 µM |  | 2.5 µM | > 50 µM | 0.773 ± 0.131 µM | 0.726 µM | 26.1 µM | 28.8 ± 11.5 µM
